One assay has as its target hCA I (Homo sapiens, UniProt P00915). Briefly: stopped flow CO2 hydrase assay, hCA I. It is filed as biochemical. As to conditions: mean of 3 different assays.
Another assay deals with hCA II (Homo sapiens, UniProt P00918). Nature of the assay: stopped flow CO2 hydrase assay, hCA II. It is filed as biochemical. As to conditions: mean of 3 different assays.
The target in the next assay is hCA VII (Homo sapiens, UniProt P43166). Nature of the assay: stopped flow CO2 hydrase assay, hCA VII. It is filed as biochemical. As to conditions: mean of 3 different assays.
For a further assay, the target named is hCA IX (Homo sapiens, UniProt Q16790). Briefly: stopped flow CO2 hydrase assay, hCA IX. The class given is biochemical. The following applies: mean of 3 different assays.
The next assay deals with hCA XII (Homo sapiens, UniProt O43570). Briefly: stopped flow CO2 hydrase assay, hCA XII. As to conditions: mean of 3 different assays. The class given is biochemical.
In a further assay the target is T1, hMAO-A (Homo sapiens, UniProt P21397).
T1 construct: purchased Sigma-Aldrich
T1 sequence (P21397 1-527): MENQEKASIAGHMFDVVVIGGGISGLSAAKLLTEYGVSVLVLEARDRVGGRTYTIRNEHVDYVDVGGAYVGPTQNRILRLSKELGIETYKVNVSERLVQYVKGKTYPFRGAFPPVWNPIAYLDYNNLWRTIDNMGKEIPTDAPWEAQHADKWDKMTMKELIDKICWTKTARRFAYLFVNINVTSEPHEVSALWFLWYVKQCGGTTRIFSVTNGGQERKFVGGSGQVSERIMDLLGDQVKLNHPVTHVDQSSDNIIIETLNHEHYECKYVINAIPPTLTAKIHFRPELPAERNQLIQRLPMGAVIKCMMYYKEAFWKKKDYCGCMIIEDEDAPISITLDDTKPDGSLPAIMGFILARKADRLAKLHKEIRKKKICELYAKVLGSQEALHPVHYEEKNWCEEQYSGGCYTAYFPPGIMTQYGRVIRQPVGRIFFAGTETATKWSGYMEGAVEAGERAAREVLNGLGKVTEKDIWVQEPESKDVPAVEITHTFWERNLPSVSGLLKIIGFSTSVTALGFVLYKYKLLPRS
Briefly: hMAO-A inhibition, recombinant enzyme, kynuramine substrate, fluorescence. The class given is biochemical.

Another assay has as its target T2, hMAO-B (Homo sapiens, UniProt P27338).
T2 construct: purchased Sigma-Aldrich
T2 sequence (P27338 1-520): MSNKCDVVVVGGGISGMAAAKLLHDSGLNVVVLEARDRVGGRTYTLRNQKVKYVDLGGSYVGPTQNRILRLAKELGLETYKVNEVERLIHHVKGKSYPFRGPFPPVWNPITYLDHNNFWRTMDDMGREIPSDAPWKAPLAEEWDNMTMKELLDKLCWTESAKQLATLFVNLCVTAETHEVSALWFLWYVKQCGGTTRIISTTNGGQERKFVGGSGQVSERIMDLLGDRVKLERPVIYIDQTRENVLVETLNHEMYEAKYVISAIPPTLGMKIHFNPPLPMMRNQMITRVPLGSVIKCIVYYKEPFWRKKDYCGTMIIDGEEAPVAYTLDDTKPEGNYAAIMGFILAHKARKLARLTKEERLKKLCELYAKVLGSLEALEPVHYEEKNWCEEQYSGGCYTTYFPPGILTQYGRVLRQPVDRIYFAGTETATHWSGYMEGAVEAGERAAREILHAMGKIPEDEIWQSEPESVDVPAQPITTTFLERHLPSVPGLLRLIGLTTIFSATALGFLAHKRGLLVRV
Nature of the assay: hMAO-B inhibition, recombinant enzyme, kynuramine substrate, fluorescence. The class given is biochemical.

Another assay concerns the target T3, AChE (electric eel) (Electrophorus electricus, UniProt O42275).
T3 construct: from tissue
Briefly: biochemical. As to conditions: read-out: inhibition of AChE at 100 µM, 100 µM.

A further assay addresses T4, BuChE (equine serum) (Equus caballus, UniProt P81908).
T4 construct: from tissue; host or cells: equine serum
Briefly: biochemical. The following applies: mean ± SD of triplicate determinations. It is filed as biochemical.

Assay [1] concerns CTX/TNA2 rat astrocytes pre-stimulated with LPS. Nature of the assay: Cell metabolic activity assay (MTT), LPS pre-stimulated astrocytes. The following applies: pre-stimulated with 0.1 µg/mL LPS 20 h, then compounds 24 and 72 h. The class given is cell-based.
Assay [2] deals with H2O2 generation in rat astrocytes pre-stimulated with LPS. Briefly: Hydrogen peroxide measurement in supernatants of LPS pre-stimulated astrocytes. The class given is cell-based. As to conditions: 24 h, 10 µM. As for the experimental part: (§1) Cells were seeded (8 × 10^3/well) and were left to adhere for 24 h in 96-well plates (Falcon®, Corning Incorporated, NY, USA). The medium was removed, incubating the cell monolayer in the presence of increasing concentrations of DEP, AAZ, and test compounds (0–150 µM) for 24–72 h. In a second set of experiments, cells were pre-incubated in the presence of 0.1 µg/mL LPS (lipopolysaccharide from E. coli, purchased from Merck, Darmstadt, Germany) for 20 h and further exposed to DEP, AAZ, and test compounds in the same experimental conditions.
At 24 h, cell supernatants were taken from the cultures used for the MTT assay. The quantitative determination of H2O2 released in supernatants was performed by means of a H2O2 colorimetric kit (cat. no. ADI-907-015, Enzo Life Sciences, Inc., Farmingdale, NY, USA). Then, 50 µL of supernatant/well was used and 100 µL of color reagent was added in each well. Next, wells were mixed and afterwards incubated for 30 min at r.t. The OD was measured following the manufacturer’s instructions.

Assay [3] relates to Interleukin-6 secretion from rat astrocytes pre-stimulated with LPS. Nature of the assay: IL-6 secretion by ELISA in LPS pre-stimulated astrocytes. It is filed as cell-based. As to conditions: 24 h, compared to LPS alone. How it is done: as §1
The amounts (pg/mL) of interleukin-6 (IL-6) were analyzed in cell supernatants using an ELISA kit (Enzo Life Sciences Inc., Lausen, Switzerland) following the manufacturer’s instructions. Absorbance was read at 450 nm and cytokine concentration was determined. Data obtained were normalized on MTT optical densities.

The mark [4] stands for this setting: mean ± SD of triplicate determinations.

Some results are limits rather than exact numbers.

T4 sequence (P81908 whole entry): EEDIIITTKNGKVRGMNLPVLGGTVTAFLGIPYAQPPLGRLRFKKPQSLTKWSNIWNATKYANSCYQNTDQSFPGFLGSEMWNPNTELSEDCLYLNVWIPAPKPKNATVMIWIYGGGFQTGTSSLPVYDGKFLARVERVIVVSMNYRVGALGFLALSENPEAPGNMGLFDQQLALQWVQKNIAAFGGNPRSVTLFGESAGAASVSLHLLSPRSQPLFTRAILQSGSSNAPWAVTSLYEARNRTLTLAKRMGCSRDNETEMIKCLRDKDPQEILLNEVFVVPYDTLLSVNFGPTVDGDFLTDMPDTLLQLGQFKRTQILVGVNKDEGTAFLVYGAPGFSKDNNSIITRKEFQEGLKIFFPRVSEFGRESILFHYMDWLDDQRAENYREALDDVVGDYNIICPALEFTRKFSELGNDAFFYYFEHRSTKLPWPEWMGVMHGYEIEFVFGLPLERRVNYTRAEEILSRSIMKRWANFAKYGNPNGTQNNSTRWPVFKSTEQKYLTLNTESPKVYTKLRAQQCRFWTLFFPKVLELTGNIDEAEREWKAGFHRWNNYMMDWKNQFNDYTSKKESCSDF
T3 sequence (O42275 24-633): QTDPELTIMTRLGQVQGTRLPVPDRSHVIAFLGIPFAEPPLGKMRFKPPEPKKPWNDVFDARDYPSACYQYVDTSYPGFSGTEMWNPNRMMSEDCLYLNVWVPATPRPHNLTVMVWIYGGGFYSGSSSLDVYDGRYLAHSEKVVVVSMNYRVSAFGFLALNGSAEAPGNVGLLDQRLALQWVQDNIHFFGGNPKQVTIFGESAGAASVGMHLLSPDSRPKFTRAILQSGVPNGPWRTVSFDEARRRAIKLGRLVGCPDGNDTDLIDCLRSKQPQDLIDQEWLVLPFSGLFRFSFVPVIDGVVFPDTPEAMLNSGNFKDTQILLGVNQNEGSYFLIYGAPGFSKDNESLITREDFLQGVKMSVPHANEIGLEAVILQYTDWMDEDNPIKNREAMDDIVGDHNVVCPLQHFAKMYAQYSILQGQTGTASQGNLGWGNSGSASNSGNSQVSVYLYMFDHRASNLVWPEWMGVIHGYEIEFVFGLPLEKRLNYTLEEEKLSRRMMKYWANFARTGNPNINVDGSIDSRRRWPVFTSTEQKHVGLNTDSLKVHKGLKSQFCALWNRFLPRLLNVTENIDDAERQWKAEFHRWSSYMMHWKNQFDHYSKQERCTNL
hCA VII, sequence (P43166 whole entry): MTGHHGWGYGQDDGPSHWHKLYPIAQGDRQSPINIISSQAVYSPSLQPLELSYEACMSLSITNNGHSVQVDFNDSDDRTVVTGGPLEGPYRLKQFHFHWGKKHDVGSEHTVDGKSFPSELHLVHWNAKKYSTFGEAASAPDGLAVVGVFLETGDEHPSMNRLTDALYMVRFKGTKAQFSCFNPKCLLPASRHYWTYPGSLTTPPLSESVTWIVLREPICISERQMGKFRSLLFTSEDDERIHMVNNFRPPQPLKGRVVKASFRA
hCA XII, sequence (O43570 25-354): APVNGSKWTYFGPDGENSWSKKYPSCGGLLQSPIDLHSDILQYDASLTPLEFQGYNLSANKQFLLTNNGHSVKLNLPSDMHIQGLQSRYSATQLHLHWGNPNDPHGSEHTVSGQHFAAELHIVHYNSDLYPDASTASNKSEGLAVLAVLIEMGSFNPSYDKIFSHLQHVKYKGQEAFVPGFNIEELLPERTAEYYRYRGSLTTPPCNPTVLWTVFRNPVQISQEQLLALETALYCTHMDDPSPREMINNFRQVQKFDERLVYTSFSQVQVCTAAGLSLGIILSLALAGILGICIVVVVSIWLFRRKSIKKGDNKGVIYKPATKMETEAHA
hCA I, sequence (P00915 whole entry): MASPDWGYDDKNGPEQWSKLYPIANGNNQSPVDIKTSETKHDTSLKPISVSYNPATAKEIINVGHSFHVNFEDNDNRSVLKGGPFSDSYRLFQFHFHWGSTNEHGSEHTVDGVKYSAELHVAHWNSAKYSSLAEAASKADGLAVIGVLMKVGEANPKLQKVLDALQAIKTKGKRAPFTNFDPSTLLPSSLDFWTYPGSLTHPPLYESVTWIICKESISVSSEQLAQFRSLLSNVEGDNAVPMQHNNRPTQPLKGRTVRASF

`C#CCCCCOc1ccc2ccc(=O)oc2c1` [Compound 9, 7-(Hex-5-yn-1-yloxy)-2H-chromen-2-one]: the Ki at hCA I was over 10 µM; at hCA II it was over 10 µM; on hCA VII, 77.1 nM; on hCA IX it was 31.3 nM; on hCA XII it was 5.9 nM; at hMAO-A (Lineweaver-Burk plots), 146 nM. Besides, the Ki at hMAO-B (Lineweaver-Burk plots) was 2.3 nM. Also, on hMAO-A (Lineweaver-Burk plots), the hMAO-A inhibition mechanism entry is “competitive inhibition mechanism”. Further, the IC50 was 650 ± 27 nM on hMAO-A (setting [4]), 7 ± 0.35 nM at hMAO-B (setting [4]) and 51 ± 4 µM against BuChE (equine serum). Also, at hMAO-B (IC50 hMAO-A/IC50 hMAO-B), the “SI (selectivity index for hMAO-B over hMAO-A)” value is recorded as 92.8. In addition, the hMAO-B inhibition mechanism result on hMAO-B (Lineweaver-Burk plots) is “competitive inhibition mechanism”. Further, on AChE (electric eel), the inhibition at 100 µM was 50%. Moreover, in assay [1], the “cell metabolic activity (MTT) versus LPS only control” value is “able to counteract the LPS-induced increase in cell metabolic activity”. In addition, the H2O2 generation result in assay [2] is listed as “restoring it to the untreated control levels”. Further, in [3], the IL-6 secretion entry is “decreases the amount of the cytokine at 0.01 and 10 µM”.

One may read the Ki as the dissociation constant of the complex between target and ligand, obtained from inhibition or displacement. As a reminder, the IC50 is the midpoint of a concentration-inhibition curve. As usually defined, the inhibition is how much of the control response was suppressed.
